Source: DBAASP
≈ marks a conversion by molar mass, not a printed value. Where “and” joins values, the source holds several entries; their conditions need not be identical. Identical values can stand only once. Each block holds one compound with its values, some of them ahead of it.

How the values were obtained:
Assay in all cases: ≥ marks a high value that may be exact or a test limit, other limits are often not marked, values filed in µg/mL are converted to µM
[1] = tested on: Staphylococcus aureus ATCC 25923
[2] = tested on: Escherichia coli ATCC 25922
[3] = tested on: Staphylococcus epidermidis AB208187
[4] = tested on: Staphylococcus epidermidis AB208188
[5] = tested on: Staphylococcus aureus ATCC 6538
[6] = tested on: Staphylococcus aureus AB94004
[7] = tested on: Staphylococcus aureus P1374
[8] = tested on: Micrococcus luteus AB93113
[9] = tested on: Bacillus thuringiensis AB92037
[10] = tested on: Bacillus subtilis AB91021
[11] = tested on: Staphylococcus aureus P1389
[12] = tested on: Staphylococcus aureus P1381
Escherichia coli AB94012 = tested on: Escherichia coli AB94012
[13] = tested on: Pseudomonas aeruginosa ATCC 9027
[14] = tested on: Staphylococcus aureus AB208193
[15] = tested on: Pectobacterium carotovorum subsp. carotovorum
Enterococcus faecalis = tested on: Enterococcus faecalis
Staphylococcus aureus = tested on: Staphylococcus aureus
Aerococcus viridans = tested on: Aerococcus viridans
Escherichia coli K-12 = tested on: Escherichia coli K-12
Klebsiella pneumoniae = tested on: Klebsiella pneumoniae
[16] = tested on: Staphylococcus aureus USA 300
Escherichia coli D22 = tested on: Escherichia coli D22
Salmonella typhimurium = tested on: Salmonella typhimurium
[17] = tested on: Xanthomonas campestris pv. oryzae
Serratia marcescens Db11 = tested on: Serratia marcescens Db11
Burkholderia cepacia = tested on: Burkholderia cepacia
Alcaligenes faecalis = tested on: Alcaligenes faecalis
Escherichia coli D31 = tested on: Escherichia coli D31
Micrococcus luteus = tested on: Micrococcus luteus
Bacillus megaterium = tested on: Bacillus megaterium
[18] = tested on: Enterobacter cloacae beta-12
Bacillus thuringiensis = tested on: Bacillus thuringiensis
[19] = tested on: Pseudomonas aeruginosa ATCC 82118
Bacillus subtilis QB935 = tested on: Bacillus subtilis QB935
Escherichia coli 1106 = tested on: Escherichia coli 1106
[20] = tested on: Fusarium oxysporum MUCL 909
[21] = tested on: Alternaria brassicicola MUCL 20297
Aspergillus fumigatus = tested on: Aspergillus fumigatus
[22] = tested on: Fusarium culmorum MUCL 30162
[23] = tested on: Trichophyton mentagrophytes
[24] = tested on: Neurospora crassa CBS 327-54
[25] = tested on: Fusarium haematococcum 160.2.2
[26] = tested on: Escherichia coli ATCC 2592
[27] = tested on: Candida albicans ATCC 3623
[28] = tested on: Micrococcus luteus ATCC 9341
[29] = tested on: Candida albicans ATCC 36232

SMILES: CC[C@H](C)[C@H](NC(=O)[C@H](CCCCN)NC(=O)[C@@H](NC(=O)[C@H](C)NC(=O)[C@H](CC(C)C)NC(=O)[C@H](CCCCN)NC(=O)[C@H](Cc1ccccc1)NC(=O)[C@H](CC(C)C)NC(=O)[C@H](Cc1cnc[nH]1)NC(=O)CNC(=O)[C@H](Cc1ccccc1)NC(=O)[C@@H](N)Cc1ccccc1)[C@@H](C)O)C(=O)N[C@H](C(=O)N1CCC[C@H]1C(=O)N[C@@H](CO)C(=O)N[C@@H](CC(C)C)C(=O)N[C@@H](Cc1ccccc1)C(=O)N[C@@H](CCC(N)=O)C(=O)O)[C@@H](C)CC [FFGHLFKLATKIIPSLFQ]
MIC [1]: 3 µM (≈ 6.32 µg/mL) | MIC [2]: 11.9 µM (≈ 25.1 µg/mL) | MIC [3]: 3 µM (≈ 6.32 µg/mL) | MIC [4]: 1.5 µM (≈ 3.16 µg/mL) | MIC [5]: 1.5 µM (≈ 3.16 µg/mL) | MIC [6]: 1.5 µM (≈ 3.16 µg/mL) | MIC [7]: 3 µM (≈ 6.32 µg/mL) | MIC [8]: ≥ 47.5 µM | MIC [9]: 3 µM (≈ 6.32 µg/mL) | MIC [10]: 3 µM (≈ 6.32 µg/mL) | MIC [11]: 3 µM (≈ 6.32 µg/mL) | MIC [12]: 1.5 µM (≈ 3.16 µg/mL) | MIC (Escherichia coli AB94012): 23.7 µM (≈ 49.9 µg/mL) | MIC [13]: 11.9 µM (≈ 25.1 µg/mL) | MIC [14]: 3 µM (≈ 6.32 µg/mL)

SMILES: CSCC[C@H](NC(=O)[C@H](CC(N)=O)NC(=O)[C@@H]1CCCN1C(=O)[C@@H]1CCCN1C(=O)[C@H](CCCNC(=N)N)NC(=O)[C@@H]1CCCN1C(=O)[C@H](CCCNC(=N)N)NC(=O)[C@@H]1CCCN1C(=O)[C@H](CCCNC(=N)N)NC(=O)[C@H](Cc1ccc(O)cc1)NC(=O)[C@H](CC(=O)O)NC(=O)[C@@H]1CCCN1C(=O)[C@H](CCCCN)NC(=O)[C@H](CC(=O)O)NC(=O)[C@@H](N)C(C)C)C(=O)O [VDKPDYRPRPRPPNM]
MIC [15]: ≥ 200 µM | MIC (Enterococcus faecalis): ≥ 200 µM | MIC (Staphylococcus aureus): > 200 µM | MIC (Aerococcus viridans): ≥ 200 µM | MIC (Escherichia coli K-12): ≥ 100 µM | MIC (Klebsiella pneumoniae): > 200 µM | MIC [16]: ≥ 100 µM | MIC (Escherichia coli D22): ≥ 70.7 µM | MIC (Salmonella typhimurium): ≥ 70.7 µM | MIC [17]: ≥ 141 µM | MIC (Serratia marcescens Db11): ≥ 200 µM | MIC (Burkholderia cepacia): ≥ 100 µM | MIC (Alcaligenes faecalis): ≥ 70.7 µM | MIC (Escherichia coli D31): ≥ 141 µM | MIC (Micrococcus luteus): ≥ 200 µM | MIC (Bacillus megaterium): ≥ 200 µM | MIC [18]: ≥ 141 µM | MIC (Bacillus thuringiensis): ≥ 200 µM | MIC [19]: ≥ 200 µM | MIC (Bacillus subtilis QB935): ≥ 200 µM | MIC (Escherichia coli 1106): ≥ 141 µM

SMILES: CC(C)[C@H](NC(=O)[C@H](CCCCN)NC(=O)[C@H](Cc1ccccc1)NC(=O)[C@@H](NC(=O)[C@@H](NC(=O)[C@H](CCCCN)NC(=O)[C@H](CCCCN)NC(=O)[C@@H](N)CCCCN)C(C)C)C(C)C)C(=O)N[C@@H](CCCCN)C(=O)N[C@@H](Cc1ccccc1)C(=O)N[C@@H](CCCCN)C(N)=O [KKKVVFKVKFK]
MIC [5]: 2.27 µM (≈ 3.13 µg/mL) | MIC [29]: 9.07 µM and 3.21 µM and 4.53 µM | MIC [28]: 2.27 µM (≈ 3.13 µg/mL)

Continued, values first:

MIC [20]: 30 µM (≈ 83.1 µg/mL) | MIC [21]: 10 µM (≈ 27.7 µg/mL) | MIC (Aspergillus fumigatus): 30 µM (≈ 83.1 µg/mL) | MIC [22]: 10 µM (≈ 27.7 µg/mL) | MIC [23]: 30 µM (≈ 83.1 µg/mL) | MIC [24]: 5 µM (≈ 13.9 µg/mL) | MIC [25]: 7 µM (≈ 19.4 µg/mL)
SMILES: CC[C@H](C)[C@H](NC(=O)[C@H](CO)NC(=O)[C@H](CC(C)C)NC(=O)[C@@H](NC(=O)[C@@H](N)CCCN=C(N)N)[C@@H](C)CC)C(=O)N[C@@H](CC(C)C)C(=O)N[C@@H](CCCN=C(N)N)C(=O)N[C@@H](Cc1cnc[nH]1)C(=O)N[C@@H](CCC(N)=O)C(=O)N[C@@H](CC(N)=O)C(=O)N[C@@H](CC(C)C)C(=O)N[C@@H](CC(C)C)C(=O)N[C@@H](CCCCN)C(=O)N[C@@H](CCC(=O)O)C(=O)N[C@@H](CC(C)C)C(=O)N[C@@H](CCC(N)=O)C(=O)N[C@@H](CC(=O)O)C(=O)N[C@@H](CC(C)C)C(=O)N[C@@H](C)C(=O)N[C@@H](CC(C)C)C(=O)N[C@@H](CCC(N)=O)C(=O)NCC(=O)N[C@@H](C)C(=O)N[C@@H](CCCCN)C(=O)O [RILSILRHQNLLKELQDLALQGAK]

MIC [5]: 11.6 µM (≈ 16.7 µg/mL) | MIC [26]: 11.6 µM (≈ 16.7 µg/mL) | MIC [27]: 4.39 µM (≈ 6.3 µg/mL) | MIC [13]: 8.7 µM (≈ 12.5 µg/mL) | MIC [28]: 4.39 µM (≈ 6.3 µg/mL)
SMILES: CC(C)C[C@H](NC(=O)[C@H](CC(C)C)NC(=O)[C@H](CCCCN)NC(=O)[C@H](CC(C)C)NC(=O)[C@H](CC(C)C)NC(=O)[C@H](CC(C)C)NC(=O)[C@H](CCCCN)NC(=O)[C@H](CC(C)C)NC(=O)[C@H](CC(C)C)NC(=O)[C@H](CC(C)C)NC(=O)[C@@H](N)CCCCN)C(=O)N[C@@H](CCCCN)C(N)=O [KLLLKLLLKLLK]
